Columns and labels:
[1] = biological target: JAK3 (Homo sapiens, UniProt P52333); assay: HTRF kinase assay, JAK3
Experimental: (§1) Homogeneous time-resolved fluorescence (HTRF) assays were performed with a HTRF® KinEASE™-TK kit (Trevigen).

[2] = biological target: BMX (Homo sapiens, UniProt P51813); assay: HTRF kinase assay, BMX
Experimental: as §1

[3] = biological target: YES1 (Homo sapiens, UniProt P07947); assay: Protein kinase panel at 1 µM, YES1; assay type: biochemical
[4] = biological target: HER2 (Homo sapiens, UniProt P04626); assay: HTRF kinase assay, HER2
Experimental: as §1

[5] = biological target: ABL1 (Homo sapiens, UniProt P00519); assay: Protein kinase panel at 1 µM, ABL1; assay type: biochemical
ABL1, sequence (P00519 whole entry): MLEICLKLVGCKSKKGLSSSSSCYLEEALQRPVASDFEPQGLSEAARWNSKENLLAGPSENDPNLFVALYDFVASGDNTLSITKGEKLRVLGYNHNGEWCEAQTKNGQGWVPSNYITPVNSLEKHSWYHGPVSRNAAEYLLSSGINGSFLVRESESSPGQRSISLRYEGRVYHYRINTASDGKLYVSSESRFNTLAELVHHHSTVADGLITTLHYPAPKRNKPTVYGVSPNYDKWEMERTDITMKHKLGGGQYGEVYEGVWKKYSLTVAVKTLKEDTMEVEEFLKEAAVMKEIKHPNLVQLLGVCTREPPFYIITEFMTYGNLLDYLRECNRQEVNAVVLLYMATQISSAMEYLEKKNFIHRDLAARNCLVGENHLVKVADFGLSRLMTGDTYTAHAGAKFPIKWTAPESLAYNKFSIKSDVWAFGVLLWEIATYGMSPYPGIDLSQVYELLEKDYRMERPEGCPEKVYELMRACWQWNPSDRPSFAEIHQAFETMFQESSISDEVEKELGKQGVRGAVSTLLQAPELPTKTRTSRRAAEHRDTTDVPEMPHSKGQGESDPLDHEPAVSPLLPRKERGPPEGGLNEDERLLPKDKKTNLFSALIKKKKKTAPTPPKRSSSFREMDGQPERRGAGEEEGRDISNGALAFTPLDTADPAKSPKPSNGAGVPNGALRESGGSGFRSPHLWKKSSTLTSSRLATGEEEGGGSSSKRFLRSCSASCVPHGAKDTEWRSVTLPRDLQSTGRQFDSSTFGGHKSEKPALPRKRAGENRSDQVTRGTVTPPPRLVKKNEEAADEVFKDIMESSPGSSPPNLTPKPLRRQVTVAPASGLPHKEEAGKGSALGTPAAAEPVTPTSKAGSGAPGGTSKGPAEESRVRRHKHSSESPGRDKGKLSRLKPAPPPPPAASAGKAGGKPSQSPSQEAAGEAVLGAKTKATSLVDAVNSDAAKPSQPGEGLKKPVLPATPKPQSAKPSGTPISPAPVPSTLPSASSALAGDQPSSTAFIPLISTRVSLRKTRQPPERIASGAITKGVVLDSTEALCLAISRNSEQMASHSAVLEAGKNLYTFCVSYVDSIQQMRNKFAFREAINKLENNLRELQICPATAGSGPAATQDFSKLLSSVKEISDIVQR

[6] = biological target: BTK (Homo sapiens, UniProt Q06187); assay: HTRF assay of BTK activity; assay type: biochemical; details: double reciprocal curve
[7] = tested on: TMD8 xenografts; assay: TMD8 tumor xenograft in SCID mice; assay type: in vivo
Experimental: TMD8 cells (1.0 × 10^7 cells in 100 µL of serum-free medium containing 40% Matrigel) were injected subcutaneously into SCID mice (6–8 weeks of age), and the tumor volume was monitored twice per week. […] The compounds were formulated in 0.5% methylcellulose containing 0.1% sodium lauryl sulfate. Tumor size and body weight were measured twice per week. All experiments were approved by the institutional animal care and use committee of Shouyao Holdings and were performed in accordance with the guidelines in the U.S. National Institutes of Health Guide for the Care and Use of Laboratory Animals (Approval No. CTA-2015063).
Figure 5 SY-1530 inhibits B-cell malignancy in vivo. (A–D) TMD8 cells were injected subcutaneously into SCID mice (6–8 weeks of age; 8 mice per group). […] Tumor size (A) and body weight (B) were measured […]. On the last day, mice were sacrificed 2.5 h after administration. LC-MS/MS was performed to measure the concentration of SY-1530 in plasma (C), and tumor samples were collected and analyzed with Western blot (D). QD represents administration once daily. Data are shown as mean ± SEM. Statistical analysis was performed with two-way analysis of variance (*P < 0.05; **P < 0.01; ***P < 0.001). […] Tumor size (E), body weight (F), SY-1530 concentration in the plasma (G), and protein expression in tumors (H) were measured. Data are shown as mean ± SEM. Statistical analysis was performed with two-way analysis of variance (*P < 0.05; **P < 0.01; ***P < 0.001).

[8] = biological target: FLT3 (Homo sapiens, UniProt P36888); assay: Protein kinase panel at 1 µM, FLT3; assay type: biochemical
[9] = tested on: spontaneous canine B-cell lymphoma; assay: Spontaneous canine B-cell lymphoma; assay type: in vivo, dog; parameters: key to Outcome: CR: complete response; PR: partial response; PD: progressive disease; SD: stable disease
Experimental: Dogs with spontaneous lymphoma were purchased from the China Agricultural University Veterinary Teaching Hospital, and the study was approved by the institutional animal care and use committee of Shouyao Holdings (approval No. CTA-2014003). The inclusion criterion was a confirmed histologic diagnosis of B-cell lymphoma (on the basis of immunohistochemistry for CD21 and CD79a). SY-1530 capsules (20–40 mg) were administered daily until disease progression. The dogs were re-examined every week for 4 weeks and subsequently biweekly. The sum of the longest diameters of all target lesions was defined as the tumor burden. According to the criteria for evaluation of the response of peripheral nodal lymphoma in dogs developed by the Veterinary Cooperative Oncology Group, the response was classified as complete response, partial response, progressive disease, or stable disease.

[10] = biological target: LYN A (Homo sapiens, UniProt P07948); assay: Protein kinase panel at 1 µM, LYN A; assay type: biochemical
[11] = tested on: human peripheral T cells; assay: CD69 up-regulation in T cells after anti-CD3/CD28 stimulation; assay type: cell-based
Experimental: CD19^+ B (>80% purity) and CD3^+ T (>90% purity) cells were purified with human B cell enrichment cocktail and human T cell enrichment cocktail (Stem Cell Technology), respectively. Cells were seeded on 12-well plates and incubated with different concentrations of BTK inhibitors for 1 h. B cells were stimulated with 50 µg/mL anti-human IgM F(ab′)2, and T cells were stimulated with 50 µg/mL anti-CD3/CD28 beads overnight. In the washout groups, the cell medium containing the indicated inhibitors was replaced with fresh medium before stimulation. Then cells were then incubated with anti-human CD69 for 1 h and analyzed with a Guava flow cytometer.
Figure 4 SY-1530 blocks B-cell receptor signaling and induces apoptosis. (A–D) Human B and T cells were purified and incubated with different concentrations of BTK inhibitors for 1 h. B cells were stimulated with 50 μg/mL anti-human IgM F(ab′)2, and T cells were stimulated with 50 μg/mL anti-CD3/CD28 beads overnight directly or after washout of BTK inhibitors before stimulation. The percentage of CD69 positive cells was analyzed by flow cytometry. Data are shown as the mean ± SEM (n = 3). Statistical analysis was performed with Student’s t-test (*P < 0.05, **P < 0.01, ***P < 0.001). (E) Pfeiffer cells and Romas cells were preincubated with different concentrations of compounds for 1 h, washed with PBS, and then stimulated with anti-IgM/anti-IgG (10 μg/mL) for 10 min. Cells were lysed and analyzed by Western blot with the indicated antibodies. (F) Pfeiffer cells were treated with various concentrations of SY-1530 for 24 h. The cells were stained with both PE-Annexin and 7-AAD and analyzed by flow cytometry. Data are shown as the mean ± SEM (n = 3). Statistical analysis was performed with Student’s t-test (*P < 0.05, **P < 0.01). (G) Pfeiffer cells were incubated with BTK inhibitors in the presence of z-VAD-fmk (caspase inhibitor) or DMSO for 24 h. Cells were lysed and analyzed with specific antibodies.

[12] = IC50 SY-1530 over IC50 ibrutinib

BMX, sequence (P51813 whole entry): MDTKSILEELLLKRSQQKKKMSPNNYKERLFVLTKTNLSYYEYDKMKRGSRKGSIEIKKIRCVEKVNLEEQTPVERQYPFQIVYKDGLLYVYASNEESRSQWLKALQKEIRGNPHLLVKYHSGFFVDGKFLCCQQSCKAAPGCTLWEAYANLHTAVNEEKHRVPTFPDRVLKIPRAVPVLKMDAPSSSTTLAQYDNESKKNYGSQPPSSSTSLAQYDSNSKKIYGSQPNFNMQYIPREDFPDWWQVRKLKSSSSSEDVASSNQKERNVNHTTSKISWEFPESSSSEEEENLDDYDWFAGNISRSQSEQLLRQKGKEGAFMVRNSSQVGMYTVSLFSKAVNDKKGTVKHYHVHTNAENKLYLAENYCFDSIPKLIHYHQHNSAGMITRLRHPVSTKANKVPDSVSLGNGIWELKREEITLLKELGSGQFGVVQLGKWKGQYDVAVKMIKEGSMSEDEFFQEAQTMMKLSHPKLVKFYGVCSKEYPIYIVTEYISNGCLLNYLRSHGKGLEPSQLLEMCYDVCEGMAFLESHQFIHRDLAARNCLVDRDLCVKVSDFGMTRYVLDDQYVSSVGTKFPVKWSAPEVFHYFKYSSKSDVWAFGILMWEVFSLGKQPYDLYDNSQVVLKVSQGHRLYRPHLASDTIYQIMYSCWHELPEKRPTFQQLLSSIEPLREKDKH
HER2, sequence (P04626 23-1255): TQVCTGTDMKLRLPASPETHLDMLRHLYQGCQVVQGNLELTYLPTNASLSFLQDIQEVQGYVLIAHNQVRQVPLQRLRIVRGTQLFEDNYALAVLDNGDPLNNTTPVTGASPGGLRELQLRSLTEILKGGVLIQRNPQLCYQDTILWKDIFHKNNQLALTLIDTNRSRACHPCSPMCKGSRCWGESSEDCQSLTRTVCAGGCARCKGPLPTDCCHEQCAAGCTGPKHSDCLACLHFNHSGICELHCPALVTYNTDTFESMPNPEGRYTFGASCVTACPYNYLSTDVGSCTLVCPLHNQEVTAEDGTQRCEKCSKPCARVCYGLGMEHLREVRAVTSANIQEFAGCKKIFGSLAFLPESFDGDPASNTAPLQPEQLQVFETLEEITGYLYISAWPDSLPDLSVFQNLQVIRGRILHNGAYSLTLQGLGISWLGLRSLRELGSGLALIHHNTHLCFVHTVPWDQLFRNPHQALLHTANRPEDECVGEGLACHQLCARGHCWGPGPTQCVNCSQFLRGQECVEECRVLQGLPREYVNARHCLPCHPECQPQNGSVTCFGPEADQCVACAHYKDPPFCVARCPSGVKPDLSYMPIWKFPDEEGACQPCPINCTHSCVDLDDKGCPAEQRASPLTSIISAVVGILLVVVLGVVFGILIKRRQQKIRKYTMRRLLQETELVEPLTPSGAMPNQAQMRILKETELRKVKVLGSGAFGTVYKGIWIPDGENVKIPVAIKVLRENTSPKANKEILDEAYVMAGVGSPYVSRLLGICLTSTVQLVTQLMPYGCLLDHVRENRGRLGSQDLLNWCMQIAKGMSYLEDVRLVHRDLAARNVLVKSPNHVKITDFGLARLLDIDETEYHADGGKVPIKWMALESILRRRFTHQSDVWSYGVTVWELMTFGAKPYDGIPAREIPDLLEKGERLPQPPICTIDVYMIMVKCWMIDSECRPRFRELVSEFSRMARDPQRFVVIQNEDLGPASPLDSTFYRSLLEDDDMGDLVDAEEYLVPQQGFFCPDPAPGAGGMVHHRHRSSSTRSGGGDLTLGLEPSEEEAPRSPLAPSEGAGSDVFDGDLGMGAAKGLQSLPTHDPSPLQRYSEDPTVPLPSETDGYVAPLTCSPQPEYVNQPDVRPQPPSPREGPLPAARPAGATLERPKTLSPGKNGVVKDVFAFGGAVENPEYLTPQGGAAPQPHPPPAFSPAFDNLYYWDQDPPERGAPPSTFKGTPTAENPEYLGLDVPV
JAK3, sequence (P52333 whole entry): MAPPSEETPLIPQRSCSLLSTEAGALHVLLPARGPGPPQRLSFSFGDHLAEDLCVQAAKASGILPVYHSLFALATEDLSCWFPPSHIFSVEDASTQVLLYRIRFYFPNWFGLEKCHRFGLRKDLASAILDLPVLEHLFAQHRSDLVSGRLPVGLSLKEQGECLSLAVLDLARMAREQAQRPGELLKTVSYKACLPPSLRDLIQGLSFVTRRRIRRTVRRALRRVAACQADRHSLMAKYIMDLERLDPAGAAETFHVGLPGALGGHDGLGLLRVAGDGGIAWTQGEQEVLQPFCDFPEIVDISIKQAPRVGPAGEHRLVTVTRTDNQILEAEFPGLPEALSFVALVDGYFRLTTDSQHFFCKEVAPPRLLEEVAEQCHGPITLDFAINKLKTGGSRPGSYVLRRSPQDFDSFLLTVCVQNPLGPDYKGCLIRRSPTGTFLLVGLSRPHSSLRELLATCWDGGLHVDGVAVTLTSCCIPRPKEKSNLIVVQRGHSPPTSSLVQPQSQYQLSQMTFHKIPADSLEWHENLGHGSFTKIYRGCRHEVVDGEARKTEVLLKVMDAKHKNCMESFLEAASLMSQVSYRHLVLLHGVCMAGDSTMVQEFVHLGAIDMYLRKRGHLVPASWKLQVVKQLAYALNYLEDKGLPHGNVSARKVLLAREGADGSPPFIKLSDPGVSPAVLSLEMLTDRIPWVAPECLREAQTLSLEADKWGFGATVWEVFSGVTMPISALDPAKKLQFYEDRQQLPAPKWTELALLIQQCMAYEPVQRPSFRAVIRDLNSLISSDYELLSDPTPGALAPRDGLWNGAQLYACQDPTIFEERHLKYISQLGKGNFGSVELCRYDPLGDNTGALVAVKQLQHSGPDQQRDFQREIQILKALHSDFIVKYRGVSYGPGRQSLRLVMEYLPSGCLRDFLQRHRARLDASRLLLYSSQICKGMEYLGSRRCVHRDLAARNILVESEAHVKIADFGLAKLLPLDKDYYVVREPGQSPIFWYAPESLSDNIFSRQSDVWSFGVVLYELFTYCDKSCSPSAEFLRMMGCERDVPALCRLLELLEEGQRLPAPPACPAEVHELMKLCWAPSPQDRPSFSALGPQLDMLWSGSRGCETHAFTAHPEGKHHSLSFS
YES1, sequence (P07947 whole entry, species assumed): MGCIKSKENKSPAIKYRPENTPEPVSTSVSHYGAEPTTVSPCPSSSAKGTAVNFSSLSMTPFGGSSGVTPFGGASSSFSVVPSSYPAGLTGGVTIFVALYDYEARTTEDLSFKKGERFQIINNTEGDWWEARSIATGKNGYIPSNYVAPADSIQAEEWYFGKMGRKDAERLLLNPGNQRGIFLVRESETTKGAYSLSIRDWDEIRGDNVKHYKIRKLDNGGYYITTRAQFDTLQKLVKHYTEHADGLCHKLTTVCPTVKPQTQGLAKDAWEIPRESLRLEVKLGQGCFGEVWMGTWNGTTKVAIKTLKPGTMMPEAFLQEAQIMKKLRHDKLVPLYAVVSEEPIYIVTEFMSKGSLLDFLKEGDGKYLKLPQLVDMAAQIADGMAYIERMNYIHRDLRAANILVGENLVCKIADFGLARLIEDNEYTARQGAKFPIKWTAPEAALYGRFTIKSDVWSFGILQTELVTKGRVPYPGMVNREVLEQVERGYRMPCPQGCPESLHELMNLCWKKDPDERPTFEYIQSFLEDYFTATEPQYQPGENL

COC/C=C/C(=O)N1CC[C@@H](n2nc(-c3ccc(Oc4ccccc4)cc3)c(C(N)=O)c2N)C1 [SY-1530]
Ratio, JAK3 [1, 12]: > 27 | IC50 ([1]; read-out: IC50 (nM), JAK3, HTRF): > 10000 nM | Ratio, BMX ([2]; IC50 SY-1530 over literature IC50 of ibrutinib): 9.4 | IC50 ([2]; read-out: IC50 (nM), BMX, HTRF): 7.51 nM | Inhibition (%), YES1 [3]: 94% | Ratio, HER2 [4, 12]: > 2500 | IC50 ([4]; read-out: IC50 (nM), HER2, HTRF): > 10000 nM | Inhibition (%), ABL1 [5]: 8% | Type of inhibition with respect to ATP [6]: non-ATP competitive inhibitor | Inhibitory potency on tumor growth ([7]; 30 mg/kg BID): better inhibitory potency on tumor growth than the same dose of ibrutinib | Anti-tumor activity ([7]; 30 mg/kg QD): comparable to that of ibrutinib at 100 mg/kg | Inhibitory potency on tumor growth ([7]; 100 mg/kg QD, versus ibrutinib 100 mg/kg QD): better inhibitory potency on tumor growth than ibrutinib | Mouse bodyweight ([7]; BID groups): moderate decrease | Tumor growth versus vehicle treated group ([7]; BID, SY-1530 30 or 10 mg/kg, ibrutinib 30 mg/kg): dramatically lower | Bodyweights of mice ([7]; QD groups): moderately changed | Concentration in plasma ([7]; QD groups, 2.5 h after administration on the last day): higher than those of ibrutinib | Tumor volume ([7]; oral, QD, 29 days): significant decrease in tumor volumes | Inhibition (%), FLT3 [8]: 68% | Outcome ([9]; Dog 01, stage IVb, dose 20/35 mg/kg, treatment interval 21 d): SD/PR | Outcome ([9]; Dog 02, stage IVa, dose 20/30/40 mg/kg, treatment interval 150 d): CR | Outcome ([9]; Dog 04, stage IVa, dose 20/30/40 mg/kg, treatment interval 21 d): SD | Outcome ([9]; Dog 06, stage IVa, dose 20/30/40 mg/kg, treatment interval 21 d): SD | Outcome ([9]; Dog 07, stage IVa, dose 20/30 mg/kg, treatment interval 14 d): SD | Outcome ([9]; Dog 08, stage IVa, dose 35 mg/kg, treatment interval 21 d): SD | Outcome ([9]; Dog 09, stage IVa, dose 35 mg/kg, treatment interval 21 d): SD | Outcome ([9]; Dog 10, stage IVa, dose 35 mg/kg, treatment interval 28 d): PR | Outcome ([9]; Dog 11, stage IIIa, dose 35 mg/kg, treatment interval 14 d): PR | Outcome ([9]; Dog 12, stage IVa, dose 35 mg/kg, treatment interval 21 d): SD | Number of dogs with complete response ([9]; of 10 dogs): 1 | Number of dogs with partial response ([9]; of 10 dogs): 3 | Number of dogs with stable disease ([9]; of 10 dogs): 6 | Inhibition (%), LYN A [10]: 87% | Up-regulation of CD69 in T cells ([11]; after washout of BTK inhibitors): not affected | CD69 up-regulation after T cell receptor stimulation ([11]; continuous exposure, 10 µM): slightly inhibited

— article PMC9334755 (Cancer Biology & Medicine, 2021)
